Reference: patent US9708304B2, “Salt polymorph of thioxanthene-9-ylidene-1-methyl piperidine acid addition salts as antimigraine compounds” (BIOFRONTERA BIOSCIENCE GMBH, priority 2013, dated 2017)
Like-named read-outs stand apart in the source and are kept apart here.

Test: Comparison of solubilities of sample Id 1 and Id 2 in three different solvents
Assay type: physicochemical
Description: It has also been confirmed that sample 2 has a higher solubility than the starting material. The starting HCl salt (sample Id 1) and the salt received from the low temperature evaporation (sample Id 2) were dissolved in 3 solvents with different capacities in solubility, namely methanol, 2-propanol and 96% ethanol (see Table 3 below). The solubility of sample Id 1 and sample Id 2 is shown in the rightmost column of Table 3 in mg/ml.

[1] = solvent 2-Propanol, hydrochloride
[2] = solvent Ethanol 96%, hydrochloride
[3] = solvent Methanol, hydrochloride

solubility (96% ethanol, organic solvent or mixture, thermodynamic from solid, solvent Ethanol 96%, read-out: Solubility) [mg/mL]	solubility (methanol, organic solvent or mixture, thermodynamic from solid, solvent Methanol, read-out: Solubility) [mg/mL]	Weight-% (dissolved salt in solution) [1] [%]	solubility [1] [mg/mL]	Weight-% (dissolved salt in solution) [2] [%]	Weight-% (dissolved salt in solution) [3] [%]	Increase in solubility in comparison to the starting material (sample Id 1) (2-propanol)	solubility (2-propanol, organic solvent or mixture, thermodynamic from solid, solvent 2-Propanol, read-out: Solubility) [mg/mL]	Increase in solubility in comparison to the starting material (sample Id 1) (96% ethanol)	solubility [2] [mg/mL]	solubility [3] [mg/mL]	SMILES	Solubility compared with starting material (methanol, 2-propanol and 96% ethanol)
57	156	0.27	4	4.56	12.50	–	–	–	–	–	CCOc1ccc2c(c1)Sc1cccc(OC)c1C2=C1CCN(C)CC1.Cl [Starting Material, 4-(6-ethoxy-1-methoxy-thioxanthene-9-ylidene)-1-methyl piperidine hydrochloride]	–
–	–	0.38	–	4.70	12.92	about 25%	5	about 9%	62	171	CCOc1ccc2c(c1)Sc1cccc(OC)c1C2=C1CCN(C)CC1.Cl [Low. temp. evap. MeOH, 4-(6-ethoxy-1-methoxy-thioxanthene-9-ylidene)-1-methyl piperidine hydrochloride]	enhanced solubility in all three solvents tested
